The results in this text go back to article PMC9049938 (2020).

SMILES strings stand for the structures.

Experiment in all cases: BLI
The test system of assay [1] is N16 (DNA, aptamer) GAGGCAGCACTTCACACGATATTTGGGGATCAGCCAGGTCAGTGCCACTGCGTAATGACTGTAGTGATG
Particulars: 150 mM NaCl, 2 mM MgCl2; 50 mM Tris-HCl pH 7.5.

Assay [2] relates to N59a (DNA, aptamer) CCACCAGGCCAAACACGACCCCAAACA
Particulars: 150 mM NaCl, 2 mM MgCl2, 50 mM Tris-HCl pH 7.5.

Assay [3] relates to N59 (DNA, aptamer) GAGGCAGCACTTCACACGATCCACCAGGCCAAACACGACCCCAAACACTGCGTAATGACTGTAGTGATG
The conditions noted are these: 150 mM NaCl, 2 mM MgCl2; 50 mM Tris-HCl pH 7.5.

For assay [4], the system named is N41 (DNA, aptamer) GAGGCAGCACTTCACACGATCCCCCCCACACTCTTCCAACCCCCTCTCTGCGTAATGACTGTAGTGATG
Particulars: 150 mM NaCl, 2 mM MgCl2; 50 mM Tris-HCl pH 7.5.

Assay [5] concerns N50 (DNA, aptamer) GAGGCAGCACTTCACACGATCGTCCCTGCCCCTGCCTCCTTTCTATGCTGCGTAATGACTGTAGTGATG
Particulars: 150 mM NaCl, 2 mM MgCl2; 50 mM Tris-HCl pH 7.5.

Assay [6] deals with N11 (DNA, aptamer) GAGGCAGCACTTCACACGATCGGACCCAAACTTTACCTTACCCCCATCTGCGTAATGACTGTAGTGATG
The conditions noted are these: 150 mM NaCl, 2 mM MgCl2; 50 mM Tris-HCl pH 7.5.

In the case of `C=C1[C@@H](O)[C@@H]2O[C@]3(CC[C@H](/C=C/[C@@H](C)[C@@H]4CC(C)=C[C@@]5(O[C@H](C[C@@](C)(O)C(=O)O)CC[C@H]5O)O4)O3)CC[C@H]2O[C@@H]1[C@@H](O)C[C@H](C)[C@H]1O[C@@]2(CC[C@H]1C)OCCC[C@H]2C`, the KD in assay [1] is 0.729 µM; in assay [2] (Table S3 prints 64 nM), 0.064 µM; in assay [3], 0.17 µM; in assay [4], 1890 µM; in assay [5], 2.57 µM; in assay [6] it was 0.498 µM.

In assay [2], `C=C1[C@@H](O)[C@@H]2O[C@]3(CC[C@H](/C=C/[C@@H](C)[C@@H]4CC(C)=C[C@@]5(O[C@H](C[C@@](C)(O)C(=O)O)CC[C@H]5O)O4)O3)CC[C@H]2O[C@@H]1[C@@H](O)C[C@H](C)[C@H]1O[C@@]2(CCCCO2)CC[C@H]1C` registered a KD of 30.5 µM.
